Laboratory results from ChEMBL document CHEMBL5325400 (Eur J Med Chem, 2023).
pIC50: −log10 of the molar value. Calls of active or inactive are those of the source. The calls are words filed in the database; no cut-off is given here.

Assays:
SK-OV-3 = experiment: Antiproliferative activity against human SK-OV-3 cells assessed as inhibition of cell growth measured after 48 hrs by MTT assay; assay type: functional, cell-based; conditions: SK-OV-3, 48 h
HepG2 = experiment: Antiproliferative activity against human HepG2 cells assessed as inhibition of cell growth measured after 48 hrs by MTT assay; assay type: functional, cell-based; conditions: HepG2, 48 h
HeLa = experiment: Antiproliferative activity against human HeLa cells assessed as inhibition of cell growth measured after 48 hrs by MTT assay; assay type: functional, cell-based
A549 [1] = experiment: Antiproliferative activity against human A549 cells expressing lentivirus RNAi VTI-96658 assessed as inhibition of cell growth measured after 48 hrs by MTT assay; assay type: functional, cell-based
A549 [2] = experiment: Antiproliferative activity against human A549 cells expressing lentivirus RNAi VTI-96659 assessed as inhibition of cell growth measured after 48 hrs by MTT assay; assay type: functional, cell-based
A549 [3] = experiment: Inhibition of colony formation in human A549 cells at 20 nM incubated for 6 days by crystal violet staining based analysis; assay type: functional, cell-based; conditions: time 6.0 day
A549 [4] = experiment: Induction of cell cycle arrest in human A549 cells assessed as accumulation at G2 phase at 40 nM incubated for 24 hrs by PI staining based flow cytometry (Rvb= 12.49%); assay type: functional
A549 [5] = experiment: Induction of cell cycle arrest in human A549 cells assessed as accumulation at S phase at 10 nM incubated for 24 hrs by PI staining based flow cytometry (Rvb= 20.94%); assay type: functional
A549 [6] = experiment: Induction of cell cycle arrest in human A549 cells assessed as accumulation at S phase at 20 nM incubated for 24 hrs by PI staining based flow cytometry (Rvb= 20.94%); assay type: functional
A549 [7] = experiment: Induction of apoptosis in human A549 cells assessed as viable cells at 20 nM incubated for 24 hrs by annexin V-FITC/propidium iodide staining based flow cytometry analysis (reference value: 96.44%); assay type: functional; conditions: read-out: Activity
A549 [8] = experiment: Induction of apoptosis in human A549 cells assessed as early apoptotic cells at 10 nM incubated for 24 hrs by annexin V-FITC/propidium iodide staining based flow cytometry analysis (reference value: 0.84%); assay type: functional
A549 [9] = experiment: Induction of apoptosis in human A549 cells assessed as early apoptotic cells at 20 nM incubated for 24 hrs by annexin V-FITC/propidium iodide staining based flow cytometry analysis (reference value: 0.84%); assay type: functional
A549 [10] = experiment: Induction of apoptosis in human A549 cells assessed as late apoptotic cells at 10 nM incubated for 24 hrs by annexin V-FITC/propidium iodide staining based flow cytometry analysis (reference value: 0.37%); assay type: functional
A549 [11] = experiment: Induction of apoptosis in human A549 cells assessed as necrotic cells at 10 nM incubated for 24 hrs by annexin V-FITC/propidium iodide staining based flow cytometry analysis (reference value: 2.36%); assay type: functional
A549 [12] = experiment: Induction of apoptosis in human A549 cells assessed as necrotic cells at 20 nM incubated for 24 hrs by annexin V-FITC/propidium iodide staining based flow cytometry analysis (reference value: 2.36%); assay type: functional
A549 [13] = experiment: Antimigratory activity against human A549 cells assessed as inhibition of cell migration at 40 nM and incubated for 12 hrs by scratch wound healing assay (reference value: 29.5 +/- 1.34%); assay type: functional; set-up: scale not given: the % may be the effect or the level left
B16-F10 [14] = experiment: Antimigratory activity against mouse B16-F10 cells assessed as inhibition of cell migration at 10 nM and incubated for 12 hrs by scratch wound healing assay (reference value: 81.9 +/- 0.64%); assay type: functional; set-up: scale not given: the % may be the effect or the level left
A549 [15] = experiment: Inhibition of cell migration in human A549 cells assessed as total number of cells migrated at 5 nM incubated for 12 hrs by crystal violet staining based transwell assay (reference value: 724 +/- 16); assay type: functional
A549 [16] = experiment: Inhibition of cell migration in human A549 cells assessed as total number of cells migrated at 10 nM incubated for 12 hrs by crystal violet staining based transwell assay (reference value: 724 +/- 16); assay type: functional
A549 [17] = experiment: Inhibition of cell migration in human A549 cells assessed as total number of cells migrated at 20 nM incubated for 12 hrs by crystal violet staining based transwell assay (reference value: 724 +/- 16); assay type: functional
B16-F10 [18] = experiment: Inhibition of cell migration in mouse B16-F10 cells assessed as total number of cells migrated at 20 nM incubated for 12 hrs by crystal violet staining based transwell assay (reference value: 692 +/- 11); assay type: functional
[19] = AUC(0 to infinity) in Sprague-Dawley rat at 1 mg/kg, iv by LC-MS analysis; assay type: ADME, organism-based; set-up: dose 1 mg/kg, route iv; conditions: in vivo
[20] = Volume of distribution in Sprague-Dawley rat at 1 mg/kg, iv by LC-MS analysis; assay type: ADME, organism-based; conditions: in vivo
[21] = Clearance in Sprague-Dawley rat at 1 mg/kg, iv by LC-MS analysis; assay type: ADME, organism-based; conditions: in vivo
[22] = Toxicity in BALB/c mouse assessed as drug tolerability at 10 mg/kg, ip; assay type: organism-based; conditions: in vivo
A549 [23] = experiment: Antitumor activity against human A549 cells xenografted in BALB/c mouse assessed as tumor growth inhibition at 5 mg/kg, ip administered every other day for 25 days; assay type: functional; conditions: A549, 600 h, time 25 day, read-out: TGI
A549 [24] = experiment: Antitumor activity against human A549 cells xenografted in BALB/c mouse assessed as tumor volume at 5 mg/kg, ip administered every other day for 25 days; assay type: functional; conditions: time 25 day
A549 [25] = experiment: Antitumor activity against human A549 cells xenografted in BALB/c mouse assessed as downregulation of Bcl-2 expression in tumor at 10 mg/kg, ip administered every other day for 25 days by Western blotting analysis; assay type: functional, organism-based; conditions: time 25.0 day
[26] = Toxicity in BALB/c nude mouse xenografted with human A549 cells assessed as pathological changes in heart at 5 to 10 mg/kg, ip administered every other day for 25 days by hematoxylin and eosin staining based microscopic analysis; assay type: organism-based; conditions: in vivo, 600 h, dose 5-10 mg/kg, time 25 day
[27] = Toxicity in BALB/c nude mouse xenografted with human A549 cells assessed as pathological changes in liver at 5 to 10 mg/kg, ip administered every other day for 25 days by hematoxylin and eosin staining based microscopic analysis; assay type: organism-based; conditions: in vivo, 600 h, dose 5-10 mg/kg, time 25 day
[28] = Toxicity in BALB/c nude mouse xenografted with human A549 cells assessed as pathological changes in lung at 5 to 10 mg/kg, ip administered every other day for 25 days by hematoxylin and eosin staining based microscopic analysis; assay type: organism-based; conditions: in vivo, 600 h, dose 5-10 mg/kg, time 25 day
[29] = Toxicity in BALB/c nude mouse xenografted with human A549 cells assessed as pathological changes in kidney at 5 to 10 mg/kg, ip administered every other day for 25 days by hematoxylin and eosin staining based microscopic analysis; assay type: organism-based; conditions: in vivo, 600 h, dose 5-10 mg/kg, time 25 day
A549 [30] = experiment: Antitumor activity against human A549 cells xenografted in BALB/c mouse assessed as reduction in EGFR phosphorylation at S473 residue in tumor at 5 to 10 mg/kg, ip administered every other day for 25 days by Western blotting analysis; assay type: functional, organism-based; conditions: dose 5-10 mg/kg, time 25.0 day
A549 [31] = experiment: Residual cell migration in human A549 cells at 20 nM incubated for 12 hrs by crystal violet staining based transwell assay; conditions: A549, 12 h
A549 [32] = experiment: Residual cell migration in human A549 cells at 40 nM incubated for 12 hrs by crystal violet staining based transwell assay; conditions: A549, 12 h

## COc1cccc(Nc2cc(Nc3cccc(NC(=O)C4CC4)c3)ncn2)c1
SK-OV-3
  pIC50: 8.82
HepG2
  pIC50: 8.74
HeLa
  pIC50: 8.44
A549 [1]
  Activity: Active
A549 [2]
  Activity: Active
A549 [3]
  inhibition: Active
A549 [4]
  Activity: 53.15%
A549 [5]
  Activity: 15.3%
A549 [6]
  Activity: 15.49%
A549 [7]
  viability at 0.02 µM: 76%
A549 [8]
  Activity: 1.5%
A549 [9]
  Activity: 1.69%
A549 [10]
  Activity: 9.78%
A549 [11]
  Activity: 6.5%
A549 [12]
  Activity: 6%
A549 [13]
  Activity: 6.1%
B16-F10 [14]
  Activity: 49.9%
A549 [15]
  Activity: 635
A549 [16]
  Activity: 486
A549 [17]
  Activity: 397
B16-F10 [18]
  Activity: 319
[19]
  AUC: 239.43 ng·h/mL
[20]
  Vd: 1.3 L/kg
[21]
  clearance: 69.8 mL/min/kg
[22]
  Activity: Non-Toxic
A549 [23]
  inhibition in vivo at 5 mg/kg: 39.1%
A549 [24]
  Activity: 42.51%
A549 [25]
  Activity: Active
[26]
  Activity: Non-Toxic
[27]
  Activity: Non-Toxic
[28]
  Activity: Non-Toxic
[29]
  Activity: Non-Toxic
A549 [30]
  Activity: inactive
A549 [31]
  level, % of control at 0.02 µM: 56.3%
A549 [32]
  level, % of control at 0.04 µM: 32.9%
